Here are results for one compound from patent publication US10993957B2 (NuCana plc, priority 2011, dated 2021).

Data set [1] concerns HeLa/TK^−. Briefly: Cytostatic assay, HeLa/TK^− cells. The data set is classed as cell-based. As to conditions: Homo sapiens, HeLa. An excerpt: (§1) The cell lines employed were L1210/0 (a leukemia cell line), FM3A/0 (a breast cancer cell line), Cem/0 (an acute lymphoblastic leukemia cell line) and HeLa (a cervical cell line).
Data set [2] deals with L1210/0. Put plainly: Cytostatic assay, L1210/0 cells. As to conditions: Mus musculus; for IC50: read-out: IC50 L1210/0. The data set is classed as cell-based, murine.
Description: as §1

Data set [3] addresses T1, carboxypeptidase Y (Saccharomyces cerevisiae, UniProt P00729).
T1 construct: purchased Sigma-Aldrich
T1 sequence (P00729 112-532): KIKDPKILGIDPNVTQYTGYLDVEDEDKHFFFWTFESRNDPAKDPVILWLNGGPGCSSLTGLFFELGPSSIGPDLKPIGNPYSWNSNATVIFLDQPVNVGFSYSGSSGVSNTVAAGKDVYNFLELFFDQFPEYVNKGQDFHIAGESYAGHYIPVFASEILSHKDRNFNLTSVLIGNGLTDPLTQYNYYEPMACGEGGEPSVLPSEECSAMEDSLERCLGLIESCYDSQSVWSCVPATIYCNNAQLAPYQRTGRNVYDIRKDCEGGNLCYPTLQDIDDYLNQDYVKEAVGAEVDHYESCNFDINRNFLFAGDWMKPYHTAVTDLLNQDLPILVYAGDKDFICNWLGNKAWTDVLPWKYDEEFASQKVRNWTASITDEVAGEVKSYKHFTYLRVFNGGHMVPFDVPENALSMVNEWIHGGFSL
Briefly: Carboxypeptidase Y assay by in situ 31P NMR. The class given is in vitro ADME. To be noted: yeast (Saccharomyces cerevisiae), 5 mg/mL, pH 7.6. The method, then: The enzymatic stability of the prodrug CPF-373 towards carboxypeptidase Y was studied using in situ ^31P NMR (202 MHz). The experiment was carried out by dissolving CPF-373 (3.0 mg) in d6-acetone (150 μL) and adding TRIZMA buffer pH 7.6 (300 μL). The resulting solution was placed in an NMR tube and a ^31P-NMR experiment at 25° C. was recorded as the blank experiment. The enzyme Carboxypeptidase Y (0.2 mg) was solubilised in TRIZMA (150 μL) and added to the solution of the phosphoramidate derivative in the NMR tube. Next, the tube was placed in the NMR machine, which was set to run a ^31P-NMR experiment (64 scans) every 4 minutes for 14 hours at 25° C. Data were processed and analysed with the Bruker Topspin 2.1 program. Carboxypeptidase Y and TRIZMA buffer were purchased from Sigma-Aldrich.
The compound (1) was incubated with carboxypeptidase Y (also known as cathepsin A) in TRIZMA buffer and the conversion of (1) was monitored by ^31P NMR. For a better resolution original spectra (lower graphs) and deconvoluted ones (upper graphs) are shown.
A enzymatic study using a carboxypeptidase Y assay was performed in which compound CPF 581, carboxypeptidase Y, and Trizma buffer (pH 7.6) were dissolved in acetone-d6 and ^31P NMR spectrum (202 MHz) spectra were recorded at regular intervals (every 7 min) over 14 h. […]

Data set [4] has as its target T2, human TP (Homo sapiens, UniProt P19971).
T2 sequence (P19971 11-482): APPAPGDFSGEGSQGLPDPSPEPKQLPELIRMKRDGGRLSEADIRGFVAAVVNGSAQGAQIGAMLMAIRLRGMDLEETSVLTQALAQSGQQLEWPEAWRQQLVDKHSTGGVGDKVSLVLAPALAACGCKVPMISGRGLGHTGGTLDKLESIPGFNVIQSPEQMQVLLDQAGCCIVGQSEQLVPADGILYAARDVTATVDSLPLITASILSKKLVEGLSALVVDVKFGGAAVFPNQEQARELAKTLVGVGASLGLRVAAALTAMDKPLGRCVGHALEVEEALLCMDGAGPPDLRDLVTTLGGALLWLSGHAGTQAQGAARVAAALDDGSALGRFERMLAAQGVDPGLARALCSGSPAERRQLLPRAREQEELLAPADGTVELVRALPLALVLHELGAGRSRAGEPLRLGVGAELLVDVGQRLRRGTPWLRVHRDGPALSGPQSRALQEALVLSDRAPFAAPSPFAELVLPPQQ
Put plainly: Phosphorolysis by human TP, HPLC. To be noted: 100 μM compound, room temperature, 0-40 min. The method, then:
Reaction mixtures containing 100 μM test compound and recombinant TP or UP (human TP: 8.6 ng/μL; E. coli TP: 3.0 ng/μL; human UP: 4 ng/mL) in a total volume of 500 μL reaction buffer (10 mM TrisHCl; 300 μM NaCl; 1 mM EDTA; 2 mM KH2PO4/K2HPO4) were incubated at room temperature. At different time points (i.e. 0, 20, 40 min) 100 μL aliquots of the reaction mixtures were withdrawn and heated at 95° C. for 3 min to inactivate the enzyme. […] The separation of Urd from uracil was performed by a linear gradient from 100% separation buffer (see above) to 60% separation buffer+40% acetonitrile (3 min 100% separation buffer; 6 min linear gradient of 100% separation buffer to 60% separation buffer+40% acetonitrile; 6 min 60% separation buffer+40% acetonitrile, followed by equilibration at 100% separation buffer).

Where two headings read alike, the source gives them in different places. Some results are limits rather than exact numbers.

As to `C[C@H](NP(=O)(OC[C@H]1O[C@@H](n2cc(F)c(=O)[nH]c2=O)CC1O)Oc1cccc2ccccc12)C(=O)OCc1ccccc1` (stereo partly drawn) [CPF 373, 5-Fluoro-2′deoxyuridine-5′-O-[1-naphthyl (benzoxy-L-alaninyl)] phosphate], the CC50 in data set [1] (Table 1, read-out: CC50 HeLa/TK^−) was 2.5 ± 1.3 µM; in data set [2] (L1210/0, Table 2, mycoplasma negative cells, read-out: CC50 L1210), 0.011 µM. Further, the IC50 in data set [1] (Table 6, read-out: IC50 HeLa/TK^−) came to 2.5 ± 1.3 µM; in data set [2] (L1210/0, Table 3) it was 0.011 µM; in data set [2] (L1210/0, Table 6), 0.011 ± 0.007 µM; in data set [2] (L1210/0, Table 7), 0.011 ± 0.009 µM. The “time to complete conversion of parent to the putative intermediate” value in data set [3] was ≤ 26 min. The “Phosphorolysis by human TP” value in data set [4] is recorded as “fully stable”.
